Drawing on PubChem BioAssay (NCI), this text covers TGI for 8 compounds.

Structures are written as SMILES.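 Where inhibition never reached the appropriate level, the endpoint shown equals the highest concentration tested. Otherwise, values were interpolated linearly from a five-concentration, 48-hour dose response in 96-well plates. TGI is the concentration that stops growth completely.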

Some test systems named below: A498 renal; ACHN renal; CAKI-1 renal; COLO 205 colon; EKVX NSCLC; HCT-15 colon; LXFL 529 NSCLC; M14 melanoma; MOLT-4 leukemia; NCI-H23 lung; NCI-H522 lung; SF-268 CNS; SK-MEL-2 melanoma; UACC-257 melanoma; UACC-62 melanoma; IGROV1 ovarian; SF-295 CNS; SK-OV-3 ovarian; MDA-MB-435; T-47D breast.
Holding throughout (experiment): NCI tumour cell line growth inhibition, 48 h

With `Oc1ccc(C2Oc3cc(O)cc4c3C2c2cc(O)cc3c2C(c2cc(O)cc5c2C4C(c2ccc(O)cc2)O5)C(c2ccc(O)cc2)O3)cc1` (centres undefined), the TGI in the assay on A498 renal, in the assay with ACHN renal, in the assay on CAKI-1 renal, in the assay with COLO 205 colon, with EKVX NSCLC and in the assay on HCT-15 colon was over 25 µM each time. The TGI is over 25 µM with LXFL 529 NSCLC; over 25 µM in the assay on M14 melanoma; over 25 µM in the assay on MOLT-4 leukemia; 22.9 µM in the assay on NCI-H23 lung; over 25 µM with NCI-H522 lung; over 25 µM in the assay with SF-268 CNS. The TGI is 12.3 µM with SK-MEL-2 melanoma, over 25 µM in the assay on UACC-257 melanoma and over 25 µM with UACC-62 melanoma.

Consider `Cn1ccc(=NS(=O)(=O)c2ccccc2)cc1`, for which the TGI in the assay with A498 renal, with ACHN renal, in the assay with COLO 205 colon, in the assay on EKVX NSCLC, in the assay on IGROV1 ovarian and in the assay with LXFL 529 NSCLC was over 100 µM throughout. Moreover, the TGI with MOLT-4 leukemia, in the assay on NCI-H23 lung, with NCI-H522 lung, with SF-268 CNS, in the assay with SF-295 CNS and with SK-MEL-2 melanoma was over 100 µM in each case. Besides, the TGI in the assay with SK-OV-3 ovarian and in the assay on UACC-257 melanoma was over 100 µM each time.

For the compound `N#Cc1ccc(OCCSCCCCCCCCCCSCCOc2ccc(C#N)cc2)cc1`, the TGI in the assay with A498 renal, with ACHN renal, in the assay on COLO 205 colon, in the assay on EKVX NSCLC, with HCT-15 colon and in the assay with IGROV1 ovarian was over 100 µM in each case. Moreover, the TGI in the assay with LXFL 529 NSCLC, with M14 melanoma, in the assay on MOLT-4 leukemia, in the assay on NCI-H23 lung, in the assay on NCI-H522 lung and with SF-268 CNS was over 100 µM in each case. Besides, the TGI in the assay with SF-295 CNS, in the assay on SK-MEL-2 melanoma, in the assay on SK-OV-3 ovarian, with UACC-257 melanoma and with UACC-62 melanoma was over 100 µM each time.

For the compound `CN/N=C(\C)C(CN1CCCCC1)C(C1=C(O)c2ccccc2OC1)c1ccccc1` (centres undefined), the TGI with ACHN renal, with CAKI-1 renal, in the assay with COLO 205 colon, in the assay with EKVX NSCLC, in the assay with HCT-15 colon and in the assay on IGROV1 ovarian was over 100 µM each time. Also, the TGI with LXFL 529 NSCLC, with M14 melanoma, with MOLT-4 leukemia, in the assay with NCI-H23 lung, in the assay with NCI-H522 lung and in the assay with SF-268 CNS was over 100 µM throughout. Also, the TGI with SF-295 CNS, with SK-MEL-2 melanoma, with SK-OV-3 ovarian, in the assay on UACC-257 melanoma and with UACC-62 melanoma was over 100 µM each time.

For `CC(=O)Nn1cnc(C(=N)C#N)c1N`, the TGI in the assay with A498 renal, with ACHN renal, in the assay with CAKI-1 renal, in the assay on COLO 205 colon, with EKVX NSCLC and in the assay with HCT-15 colon was over 100 µM throughout. The TGI in the assay with IGROV1 ovarian, in the assay on M14 melanoma, in the assay with MDA-MB-435, with MOLT-4 leukemia, with NCI-H23 lung and in the assay on NCI-H522 lung was over 100 µM each time. Further, the TGI with SF-268 CNS, in the assay on SF-295 CNS, with SK-MEL-2 melanoma, in the assay on SK-OV-3 ovarian, with T-47D breast and in the assay on UACC-257 melanoma was over 100 µM throughout. In the assay with UACC-62 melanoma, this compound returned a TGI of over 100 µM.

As to `CSc1nc(-c2ccccc2)nc(C(C#N)C#N)n1`, the TGI in the assay on A498 renal, in the assay with ACHN renal, in the assay on CAKI-1 renal, in the assay with COLO 205 colon, with EKVX NSCLC and in the assay with HCT-15 colon was over 100 µM throughout. Also, the TGI in the assay with IGROV1 ovarian, with M14 melanoma, in the assay on MDA-MB-435, with MOLT-4 leukemia, in the assay with NCI-H23 lung and in the assay with NCI-H522 lung was over 100 µM in each case. Further, the TGI in the assay with SF-268 CNS, with SF-295 CNS, in the assay on SK-MEL-2 melanoma, in the assay on SK-OV-3 ovarian, with T-47D breast and in the assay on UACC-257 melanoma was over 100 µM throughout. Further, the TGI in the assay with UACC-62 melanoma was over 100 µM.

`Nc1ncnc2c1ncn2[C@@H]1O[C@H](COP(=O)(O)OP(=O)(O)OC[C@H]2O[C@@H](OCCCO)[C@H](O)[C@@H]2O)[C@@H](O)[C@H]1O`: the TGI in the assay with A498 renal, in the assay with ACHN renal, in the assay on CAKI-1 renal, with COLO 205 colon, in the assay with EKVX NSCLC and in the assay on HCT-15 colon was over 100 µM each time. In addition, the TGI with IGROV1 ovarian, in the assay on M14 melanoma, in the assay with MDA-MB-435, with MOLT-4 leukemia, in the assay with NCI-H23 lung and with NCI-H522 lung was over 100 µM throughout. Moreover, the TGI with SF-268 CNS, in the assay with SF-295 CNS, in the assay with SK-MEL-2 melanoma, in the assay with SK-OV-3 ovarian, with T-47D breast and in the assay on UACC-257 melanoma was over 100 µM in each case. This compound displayed a TGI with UACC-62 melanoma of over 100 µM.

On to `COc1ccc(NC(=O)C(C#N)=C(SC)SC)cc1`, for which the TGI with A498 renal, in the assay with ACHN renal, with CAKI-1 renal, in the assay on COLO 205 colon, with EKVX NSCLC and in the assay with HCT-15 colon was over 100 µM throughout. Also, the TGI in the assay with IGROV1 ovarian, with M14 melanoma, in the assay with MDA-MB-435, in the assay with MOLT-4 leukemia, in the assay on NCI-H23 lung and in the assay with NCI-H522 lung was over 100 µM each time. Further, the TGI in the assay on SF-268 CNS, in the assay with SF-295 CNS, in the assay on SK-MEL-2 melanoma, in the assay with SK-OV-3 ovarian, in the assay on T-47D breast and with UACC-257 melanoma was over 100 µM each time. Further, in the assay with UACC-62 melanoma, the TGI was over 100 µM.
